The values below are quoted from earlier work in patent US10783985B2, “Physics-based computational methods for predicting compound solubility” (Schrödinger, LLC, priority 2015, dated 2020).

For the data set the following is noted: for Expt. Solubility: Table 1, experimentally determined.
Setting [1] is: experimental, Ilevbare and Taylor 2013.

On to `CC(=O)Nc1ccc(O)cc1` [acetaminophen], for which the aqueous solubility (experimental, NIH Pubchem database, printed conversion of the mg/L value) is recorded as ~36,000 μM.

For `Clc1ccccc1C(c1ccccc1)(c1ccccc1)n1ccnc1` [clotrimazole], the “Expt. Solubility” value is 1.16 µM.

Turning to `CN1CCN(C2=Nc3cc(Cl)ccc3Nc3ccccc32)CC1` [clozapine], the “Expt. Solubility” value is 26.93 µM.

Take `CCOC(=O)C1=C(C)NC(C)=C(C(=O)OC)C1c1cccc(Cl)c1Cl` (stereo not shown) [felodipine]: under setting [1], the “"amorphous" solubility” value was 22.1 µM and the “"equilibrium" solubility” value is 2.5 µM. The “solubility class (BCS), experimental data” value (felodipine comparison data) is reported as “low solubility (BCS Class II/IV)”.

For the molecule `COc1ccc2c(c1)c(CC(=O)O)c(C)n2C(=O)c1ccc(Cl)cc1` [indomethacin], the “Expt. Solubility” value was 8.38 µM.
